Experimental data reported in ChEMBL document CHEMBL1136459, “New antibacterial tetrahydro-4(2H)-thiopyran and thiomorpholine S-oxide and S,S-dioxide phenyloxazolidinones” (Bioorg Med Chem Lett, 2003).
In brackets after ≈: the same amount, converted by molar mass.

Tests used:
[1] = tested on: Haemophilus influenzae; assay: In vitro antibacterial activity against Haemophilia influenzae strains 30063 and ATCC 31517 (HI); range is 16-32; assay type: functional
[2] = tested on: Moraxella catarrhalis; assay: In vitro antibacterial activity against Moraxella catarrhalis strains 30607 and 30603 (MC).; assay type: functional
[3] = tested on: Staphylococcus aureus; assay: In vitro antibacterial activity against Staphylococcus aureus strains UC12673, UC9213, ATCC 29213, and UC9271 (SA); range is 4-16; assay type: functional
[4] = tested on: Enterococcus faecium; assay: In vitro antibacterial activity against vancomycin-resistant Enterococcus faecium UC12712 (VRE).
[5] = tested on: Streptococcus pneumoniae; assay: In vitro antibacterial activity against Streptococcus pneumoniae strains ATCC6305 and 31573 (SPN).
[6] = tested on: Staphylococcus aureus; assay: In vitro antibacterial activity against Linezolid resistance Staphylococcus aureus ATCC 29213 (LRSA)
[7] = tested on: Haemophilus influenzae; assay: In vitro antibacterial activity against Haemophilia influenzae strains ATCC 30063 and ATCC 31517; assay type: functional
[8] = tested on: Staphylococcus aureus; assay: In vitro antibacterial activity against Staphylococcus aureus strains UC12673, UC9213, ATCC 29213, and UC9271 (SA); range is 1-2; assay type: functional
[9] = tested on: Staphylococcus epidermidis; assay: In vitro antibacterial activity against Staphylococcus epidermidis strains UC12084, 30031, and CDC-CNS90 (SE); range is 0.5-1; assay type: functional
[10] = tested on: Staphylococcus aureus; assay: In vitro antibacterial activity against linezolid-resistant Staphylococcus aureus ATCC 29213 (LRSA).; assay type: functional
[11] = tested on: Streptococcus pneumoniae; assay: In vitro antibacterial activity against Streptococcus pneumoniae strains ATCC 6305 and 31573 (SPN); range is 0.5-1
[12] = tested on: Haemophilus influenzae; assay: In vitro antibacterial activity against Haemophilia influenzae strains 30063 and ATCC 31517 (HI); range is 4-16; assay type: functional
[13] = tested on: Moraxella catarrhalis; assay: In vitro antibacterial activity against Moraxella catarrhalis strains 30607 and 30603 (MC); range is 8-16; assay type: functional
[14] = tested on: Staphylococcus aureus; assay: In vitro antibacterial activity against Staphylococcus aureus strains UC12673, UC9213, ATCC 29213, and UC9271 (SA); assay type: functional
[15] = tested on: Staphylococcus epidermidis; assay: In vitro antibacterial activity against Staphylococcus epidermidis strains UC12084, 30031, and CDC-CNS90 (SE); range is 0.13-2; assay type: functional
[16] = tested on: Streptococcus pneumoniae; assay: In vitro antibacterial activity against Streptococcus pneumoniae strains ATCC 6305 and 31573 (SPN); range is 1-2
[17] = tested on: Staphylococcus epidermidis; assay: In vitro antibacterial activity against Staphylococcus epidermidis strains UC12084, 30031, and CDC-CNS90 (SE); assay type: functional
[18] = tested on: Streptococcus pneumoniae; assay: In vitro antibacterial activity against Streptococcus pneumoniae strains ATCC 6305 and 31573 (SPN); range is 32-64; assay type: functional
[19] = tested on: Staphylococcus epidermidis; assay: In vitro antibacterial activity against Staphylococcus epidermidis strains UC12084, 30031, and CDC-CNS90 (SE); range is 32->64; assay type: functional

Row | Compound | MIC [2] | MIC [4] | MIC [7] | MIC [10] | MIC [14] | further results
1 | O=C(NC[C@H]1CN(c2ccc(N3CCS(=O)(=O)CC3)c(F)c2)C(=O)O1)C1CC1 | 4 µg/mL (≈ 9.72 µM) | 4 µg/mL (≈ 9.72 µM) |  |  |  | MIC [1]: 16 µg/mL (≈ 38.9 µM); MIC [3]: 4 µg/mL (≈ 9.72 µM); MIC [5]: 2 µg/mL (≈ 4.86 µM); MIC [6]: 2 µg/mL (≈ 4.86 µM)
2 | CO/N=C/c1ccc(/C=C/C(=O)NC[C@H]2CN(c3ccc(N4CC[S+]([O-])CC4)c(F)c3)C(=O)O2)cc1 | 4 µg/mL (≈ 7.77 µM) | 2 µg/mL (≈ 3.89 µM) | > 64 µg/mL | 64 µg/mL (≈ 124 µM) |  | MIC [8]: 1 µg/mL (≈ 1.94 µM); MIC [9]: 0.5 µg/mL (≈ 0.972 µM); MIC [11]: 0.5 µg/mL (≈ 0.972 µM)
3 | NC(=O)NC[C@H]1CN(c2ccc(C3CCS(=O)(=O)CC3)c(F)c2)C(=O)O1 |  | 4 µg/mL (≈ 10.4 µM) |  | > 64 µg/mL | 16 µg/mL (≈ 41.5 µM) | MIC [12]: > 4 µg/mL; MIC [13]: > 8 µg/mL; MIC [15]: 0.13 µg/mL (≈ 0.337 µM); MIC [16]: 1 µg/mL (≈ 2.59 µM)
4 | NCCC(O)C(=O)NC[C@H]1CN(c2ccc(C3CCS(=O)(=O)CC3)c(F)c2)C(=O)O1 (some centres not stated) | > 64 µg/mL |  | > 64 µg/mL | > 64 µg/mL | > 64 µg/mL | MIC [17]: > 64 µg/mL; MIC [18]: 32 µg/mL (≈ 72.2 µM)
5 | CC(C)CCC(=O)NC[C@H]1CN(c2ccc(N3CC[S+]([O-])CC3)c(F)c2)C(=O)O1 | > 64 µg/mL | > 64 µg/mL | > 64 µg/mL | > 64 µg/mL | ≥ 64 µg/mL | MIC [19]: 32 µg/mL (≈ 75.2 µM)
